Laboratory results reported in patent EP4342530A1, “SORTILIN MODULATORS” (Insusense ApS, priority 2022, dated 2024).
Like-named read-outs stand apart in the source and are kept apart here.

Assay: Kpuu determination in the dog (plasma and CSF time course after oral capsule)
Assay type: in vivo, male beagle dog
Protocol: Example 3 was loaded as a solid, Batch No. C2210502, into enteric coated capsule (0#). Fasted male beagle dog was dosed with pentagastrin (0.25 mg/mL and 0.024 mL/kg) at 6 µg/kg by intramuscular (IM) injection at approximately 30 minutes prior to administration of test compound. Capsule containing 20 mg/kg of Example 3 were administered orally and plasma and CSF samples were taken pre-dose, 0.5, 1, 2, 4, 8 12 and 24 hours post dosing and analysed for concentration of Example 3 in analogous fashion to the study above.
Kpuu = AUC0−infcsf/(AUC0−infplasma×(%Fuplasma/100)) [formula] Kpuu = 6414/(23816×(55,5/100)) = 6414/13218 = 0.49 [formula]

[1] = male, beagle, CSF, 20 mg/kg oral capsule, read-out: CSF concentration
[2] = male, beagle, plasma, 20 mg/kg oral capsule, read-out: Plasma concentration

CSF concentration (20 mg/kg oral capsule, 0,5 h): BQL
Plasma concentration (20 mg/kg oral capsule, 0,5 h): 1,04 ng/mL
CSF concentration (20 mg/kg oral capsule, 1 h): BQL
Plasma concentration (20 mg/kg oral capsule, 1 h): 3,20 ng/mL
CSF concentration (20 mg/kg oral capsule, 2 h): 13,7 ng/mL
CSF concentration (20 mg/kg oral capsule, 24 h): 27,7 ng/mL
Plasma concentration (20 mg/kg oral capsule, 24 h): 87,1 ng/mL
AUC(0-inf) (male, beagle, CSF, 20 mg/kg oral capsule): 6410 ng·h/mL
concentration at 4 h [1]: 745 ng/mL
concentration at 8 h [1]: 698 ng/mL
concentration at 12 h [1]: 196 ng/mL
AUC(0-inf) (male, beagle, Plasma, 20 mg/kg oral capsule): 23800 ng·h/mL
concentration at 2 h (male, beagle, plasma, 20 mg/kg oral capsule, 2 h): 370 ng/mL
concentration at 4 h [2]: 5350 ng/mL
concentration at 8 h [2]: 1400 ng/mL
concentration at 12 h [2]: 390 ng/mL
SMILES: CC(C)(C)CC[C@H](NCc1ccc2c(c1)COCC2)C(=O)O [Example 3, (S)-2-((isochroman-7-ylmethyl)amino)-5,5-dimethylhexanoic acid]
